Each structure is given as a SMILES string.

This assay concerns C6/36 Aedes albopictus cell line infected with Wolbachia pipientis (Wolbachia strain wAlbB). In words: In vitro insect cell line assay (anti-Wolbachia screen, SYTO 11 high content imaging). Type of assay: cell-based. The conditions noted are these: 168 h; C6/36 Aedes albopictus cells infected with Wolbachia pipientis wAlbB, 7 days incubation, SYTO 11 imaging; read-out: In vitro anti-Wolbachia activity. As to the method:
A C6/36 Aedes albopictus cell line infected with Wolbachia pipientis (Wolbachia strain wAlbB) derived from Aa23 A. albopictus cell line (O'Neill et al., 1997; Insect Mol Biol; Turner et al., (2006) J. Immunol. 7:1240-1249) was used to screen compounds. Cells were cultured in Leibovitz's L15+L-glutamine supplemented with heat-inactivated Foetal Calf Serum (HI-FCS), non-essential amino acids and tryptose phosphate broth. Culture medium was filter-sterilized through a 0.2 μm filter and stored at 4° C. Compounds were provided as 10 mM stocks in DMSO, diluted to 50 μM working stock to give final concentration of 5 μM on the test plate. Concentrated stocks were frozen at −20° C.
Prior to use in the screening assay, cell cultures were sub-passaged (6 days prior) to provide ˜90% confluent cells on Day 0 of screening assay. On Day 0 (assay set-up), the medium was removed from the stock culture flask and replaced with fresh medium. The cells were detached by scraping and cell density was calculated using an automated cell counter. The cells were then diluted at working density and aliquoted at 90 μl to each well of a Cell Carrier 384 well plate (Perkin Elmer). Cell plates were incubated at 26° C.
Control solution (DMSO-medium) was dispensed at 10 μl per well for “untreated” wells. Test solution (Drug-DMSO) was also dispensed at 10 μl (from working plate) per well for “treated” wells. The plates were incubated at 26° C., inside plastic wallet in incubator, for 7 days.
On Day 7, 25 μl of staining medium/dye (SYTO 11, Life Technologies) was added to each sample well and allowed to stain for 15 minutes in the dark. All the medium was removed from each sample well without disturbing the cells and replaced with 100 μl of fresh medium. Plates were imaged on the Operetta High Content Imaging system (Perkin Elmer) and analyzed using texture analysis through Harmony software (Perkin Elmer). The cell-based screen and analysis are described in detail in Clare et al. (2014) J Biomol Screen.
For `CC(C)Nc1nc(NCc2ccccc2S(C)(=O)=O)c2ccccc2n1` [Example 112, N^2-isopropyl-N^4-(2-(methylsulfonyl)benzyl)quinazoline-2,4-diamine], the EC50 was in the range of 100 to 1000 nM.
The figure for `CNCc1nc(NCc2ccccc2C(F)(F)F)c2sccc2n1` [Example 154, 2-((methylamino)methyl)-N-(2-(trifluoromethyl)benzyl)thieno[3,2-d]pyrimidin-4-amine] is 1000 to 100000 nM; for `Clc1nc(NCc2ccccc2Cl)c2sccc2n1` [Example 21, 2-chloro-N-(2-chlorobenzyl)thieno[3,2-d]pyrimidin-4-amine] it is 10 to 100 nM; for `CC(Nc1nc(Cl)nc2ccsc12)c1ccccc1C(F)(F)F` (stereo not drawn) [Example 52, 2-chloro-N-(1-(2-(trifluoromethyl)phenyl)ethyl)thieno[3,2-d]pyrimidin-4-amine] it is 10 to 100 nM.
Then `FC(F)(F)c1ccncc1CNc1ncnc2ccsc12` [Example 82], with 1000 to 100000 nM.
The figure for `CC1CCN1c1nc(NCc2cccnc2C(F)(F)F)c2cccnc2n1` (stereo not drawn) [Example 172, 2-(2-methylazetidin-1-yl)-N-((2-(trifluoromethyl)pyridin-3-yl)methyl)pyrido[2,3-d]pyrimidin-4-amine] is 0.01 to 1 nM.
As for `N#CC1CN(c2nc(NCc3cccnc3C(F)(F)F)c3cccnc3n2)C1` [Example 237, 1-(4-(((2-(trifluoromethyl)pyridin-3-yl)methyl)amino)pyrido[2,3-d]pyrimidin-2-yl)azetidine-3-carbonitrile], the EC50 was 100 to 1000 nM.
The figure for `COc1cccc(CNc2ncnc3ccsc23)c1C(F)(F)F` [Example 51, N-(3-methoxy-2-(trifluoromethyl)benzyl)thieno[3,2-d]pyrimidin-4-amine] is 10 to 100 nM; for `FC1(F)CC2(CCN(c3nc(NCc4ccccc4C(F)(F)F)c4cccnc4n3)CC2)C1` [Example 260, 2-(2,2-difluoro-7-azaspiro[3.5]nonan-7-yl)-N-(2-(trifluoromethyl)benzyl)pyrido[2,3-d]pyrimidin-4-amine] it is 1 to 10 nM; for `CC(C)N(C)c1nc(NCc2cccnc2C(F)(F)F)c2ccccc2n1` [Example 176, N^2-isopropyl-N^2-methyl-N^4-((2-(trifluoromethyl)pyridin-3-yl)methyl)quinazoline-2,4-diamine] it is 100 to 1000 nM.
The figure for `O=C(Nc1ccc(F)cc1)Nc1nc(NCc2cccnc2C(F)(F)F)c2cccnc2n1` [Example 204, 1-(4-fluorophenyl)-3-(4-(((2-(trifluoromethyl)pyridin-3-yl)methyl)amino)pyrido[2,3-d]pyrimidin-2-yl)urea] is 10 to 100 nM; for `CC(C)N(C)c1nc(NCc2cccnc2C(F)(F)F)c2cccnc2n1` [Example 162, N^2-isopropyl-N^2-methyl-N^4-((2-(trifluoromethyl)pyridin-3-yl)methyl)pyrido[2,3-d]pyrimidine-2,4-diamine] it is 0.01 to 1 nM.
Then `CC1COCCN1c1nc(N2CCC2c2cccnc2C(F)(F)F)c2cccnc2n1` (stereo not drawn) [Example 219, 3-methyl-4-(4-(2-(2-(trifluoromethyl)pyridin-3-yl)azetidin-1-yl)pyrido[2,3-d]pyrimidin-2-yl)morpholine], with 1 to 10 nM.
Regarding `FC(F)(F)c1ncccc1CNc1nc(N2CCOC3(CC3)C2)nc2ncccc12` [Example 256, 2-(4-oxa-7-azaspiro[2.5]octan-7-yl)-N-((2-(trifluoromethyl)pyridin-3-yl)methyl)pyrido[2,3-d]pyrimidin-4-amine], the EC50 is less than 0.01 nM.
As for `CC(C)N(C)c1nc(N2CCOCC2c2ccccc2C(F)(F)F)c2cccnc2n1` (stereo not drawn) [Example 188, N-isopropyl-N-methyl-4-(3-(2-(trifluoromethyl)phenyl)morpholino)pyrido[2,3-d]pyrimidin-2-amine], the EC50 lay in the range of 1000 to 100000 nM.
The figure for `CC1(C)CCN(c2nc(NCc3ccccc3C(F)(F)F)c3cccnc3n2)CC1` [Example 244, 2-(4,4-dimethylpiperidin-1-yl)-N-(2-(trifluoromethyl)benzyl)pyndo[2,3-d]pyrimidin-4-amine] is 1 to 10 nM; for `Cc1csc2c(NC(C)c3ccccc3C(F)(F)F)ncnc12` (stereo not drawn) [Example 105, 7-methyl-N-(1-(2-(trifluoromethyl)phenyl)ethyl)thieno[3,2-d]pyrimidin-4-amine] it is 1000 to 100000 nM.
The figure for `FC(F)(F)c1cccnc1CNc1ncnc2ccsc12` [Example 61, N-((3-(trifluoromethyl)pyridin-2-yl)methyl)thieno[3,2-d]pyrimidin-4-amine] is 1000 to 100000 nM; for `Clc1nc(NC2(c3ccccc3Cl)CC2)c2sccc2n1` [Example 47, 2-chloro-N-(1-(2-chlorophenyl)cyclopropyl)thieno[3,2-d]pyrimidine-4-diamine] it is 1000 to 100000 nM; for `FC(F)(F)c1ccccc1CNc1nc(Cl)nc2ccccc12` [Example 57, 2-chloro-N-(2-(trifluoromethyl)benzyl)quinazolin-4-amine] it is 10 to 100 nM.
Then `CC(C)Nc1nc(NCc2c(F)cccc2C(F)(F)F)c2cccnc2n1` [Example 166, N^4-(2-fluoro-6-(trifluoromethyl)benzyl)-N^2-isopropylpyrido[2,3-d]pyrimidine-2,4-diamine], with 100 to 1000 nM; and `FC(F)Sc1nc(NCc2cccnc2C(F)(F)F)c2cccnc2n1` [Example 191, 2-((difluoromethyl)thio)-N-((2-(trifluoromethyl)pyridin-3-yl)methyl)pyrido[2,3-d]pyrimidin-4-amine], with 100 to 1000 nM; and `Cc1nc(N(C)C(C)c2ccccc2C(F)(F)F)c2sc(C(C)(C)O)cc2n1` (stereo not drawn) [Example 70, 2-(2-methyl-4-(methyl(1-(2-(trifluoromethyl)phenyl)ethyl)amino)thieno[3,2-d]pyrimidin-6-yl)propan-2-ol], with 1000 to 100000 nM.
Regarding `CNc1nc(NCc2cccnc2C(F)(F)F)c2cccnc2n1` [Example 149, N^2-methyl-N^4-((2-(trifluoromethyl)pyridin-3-yl)methyl)pyrido[2,3-d]pyrimidine-2,4-diamine], the EC50 lay in the range of 100 to 1000 nM.
For `FC(F)(F)c1ccccc1C1CCN1c1nc(N2CCC(Cl)CC2)nc2ncccc12` (stereo not drawn) [Example 212, 2-(4-chloropiperidin-1-yl)-4-(2-(2-(trifluoromethyl)phenyl)azetidin-1-yl)pyrido[2,3-d]pyrimidine], the EC50 is 100 to 1000 nM.
Then `FC(F)(F)CNc1nc(NCc2ccccc2C(F)(F)F)c2sccc2n1` [Example 42, N^2-(2,2,2-trifluoroethyl)-N^4-(2-(trifluoromethyl)benzyl)thieno[3,2-d]pyrimidine-2,4-diamine], with 100 to 1000 nM; and `CC(C)Nc1nc(NCc2ccccc2F)c2sccc2n1` [Example 11], with 100 to 1000 nM.
Consider `Cc1nc(NCc2ccccc2C(F)(F)F)c2sccc2n1` [Example 55, 2-methyl-N-(2-(trifluoromethyl)benzyl)thieno[3,2-d]pyrimidin-4-amine], for which the EC50 fell in the range of 10 to 100 nM.
The figure for `CC(C)Nc1nc(NCc2ccccc2F)c2ccccc2n1` [Example 135, N^4-(2-fluorobenzyl)-N^2-isopropylquinazoline-2,4-diamine] is 1000 to 100000 nM.
The figure for `COc1cccc(CNc2nc(NC(C)C)nc3ccsc23)c1` [Example 16, N^2-isopropyl-N^4-(3-methoxybenzyl)thieno[3,2-d]pyrimidine-2,4-diamine] is 1000 to 100000 nM; for `CC1CCCN(c2nc(NCc3cccnc3C(F)(F)F)c3cccnc3n2)C1` (stereo not drawn) [Example 311, 2-(3-methylpiperidin-1-yl)-N-((2-(trifluoromethyl)pyridin-3-yl)methyl)pyrido[2,3-d]pyrimidin-4-amine] it is 0.01 to 1 nM.
The figure for `CC(C)Nc1nc(NCc2cccnc2C(F)(F)F)c2ccccc2n1` [Example 151, N^2-isopropyl-N^4-((2-(trifluoromethyl)pyridin-3-yl)methyl)quinazoline-2,4-diamine] is 100 to 1000 nM.
For `CC(C)Nc1nc(NCc2ccc(C(F)(F)F)cc2)c2ncccc2n1` [Example 124, N^2-isopropyl-N^4-(4-(trifluoromethyl)benzyl)pyrido[3,2-d]pyrimidine-2,4-diamine], the EC50 fell in the range of 1000 to 100000 nM.
As to `FC(F)(F)c1ncccc1CNc1nc(N2CCC(Cl)C2)nc2ncccc12` (stereo not drawn) [Example 265, 2-(3-chloropyrrolidin-1-yl)-N-((2-(trifluoromethyl)pyridin-3-yl)methyl)pyrido[2,3-d]pyrimidin-4-amine], the EC50 was less than 0.01 nM.
The figure for `CN1CCN(c2nc(NCc3ccccc3C(F)(F)F)c3sccc3n2)CC1` [Example 95, 2-(4-methylpiperazin-1-yl)-N-(2-(trifluoromethyl)benzyl)thieno[3,2-d]pyrimidin-4-amine] is 1000 to 100000 nM; for `CC1(C)CN(c2nc(NCc3cccnc3C(F)(F)F)c3cccnc3n2)CCO1` [Example 239, 2-(2,2-dimethylmorpholino)-N-((2-(trifluororoethyl)pyridin-3-yl)methyl)pyrido[2,3-d]pyrimidin-4-amine] it is 0.01 to 1 nM.

The record behind these values is patent publication US11518760B2 (Liverpool School of Tropical Medicine, priority 2017, dated 2022).
